Measurements published in patent publication US12070458B2, “Therapeutic agent composition and method of use, for treatment of mild congnitive impairment, depression, and psychological disorders” (priority 2018, dated 2024).
Residues, ends and D or L forms follow the SMILES beside them.

What was measured:
[1] = tested on: 6-OHDA induced nigral-striatal lesion; assay: 6-OHDA induced nigral-striatal lesion, apomorphine-induced contralateral rotations; format: in vivo, Wistar rats; conditions: 1 mg (mg/kg) i.p. 2 hours post lesion; 7 days post-lesion, apomorphine 0.1 mg/kg; n=5; vehicle 290±18 or 292±21
Procedure: Twenty male Wistar rats (280-310 g) were used. After exposing the skull, 6-OHDA (8 μg in a base of 2 μl 0.9% saline containing 1% ascorbic acid) was administered into the right medial forebrain bundle (MFB) using co-ordinates AP +4.7 mm, R 1.6 mmv −8 mm under 3% halothane anaesthesia. 6-OHDA was injected through a 25G needle connected via a polyethylene catheter to a 100 μl Hamilton syringe. The 6-OHDA was infused by a microdialysis infusion pump at a rate of 0.5 μl/min. The needle was left in the brain for a further 3 minutes before being slowly withdrawn. The skin was sutured with 2.0 silk and the rats were allowed to recover from anaesthesia. The rats were housed in a holding room with free access to food and water at all times except during behavioural testing.
Cyclic PG was dissolved in saline. Four different doses of cPG (0, 0.1, 0.5, 1 mg/kg, Bachem) were administered intraperitoneally 2 hours post lesion.
At 7 days post-lesion, rats were injected with 0.1 mg/kg apomorphine and the number of contralateral rotations/hour was recorded and calculated using a computerised Rotameter (St Diego Instruments). Experimenter was blinded from the treatment groups.
Cyclic(tri(prolylglycyl)) was dissolved in saline solution. Four different doses of Cyclic(tri(prolylglycyl)) (0, 0.1, 0.5, 1 mg/kg, NeuroBiomed) were administered intraperitoneally 2 hours post lesion.
Cyclic Glycyl-2-Methyl Proline (cGMeP) was dissolved in saline solution. Four different doses of cGMeP (0, 0.1, 0.5, 1 mg/kg, NeuroBiomed) were administered intraperitoneally 2 hours post lesion.

[2] = tested on: BrdU positive cells in sub ventricular zone and dentate gyrus; assay: Neurogenesis by BrdU co-administration (sub ventricular zone, dentate gyrus); format: in vivo, Wistar rats; conditions: 10 mg/kg i.p. in 0.1% RSA twice daily for 7 days, compared to sham injected
Procedure: Male Wistar rats weighing about 250-270 g (not newborn) were used. All animal experiments were conducted in agreement with national and international guidelines. Care was taken to minimize suffering for the animals. Animals were allowed to acclimatize for 1 week before start of the studies. Animals were housed under standardized conditions with normal tight-dark periods and in groups of five animals per cage. Animals had access to food and water ad libitum during the studies.
Three neurogenesis modulating agents, cPG, c(PG)3 and cGMeP were separately administered intraperitoneally to Male Wistar rats (N=10) at 10 mg/kg in Rat Serum Albumin (RSA). The negative control (n=12), the vehicle group was injected with saline (in 0.1% RSA). Bromodeoxyuridine (Brd1J; 50 mg/kg) was co-administrated together with the compounds. The intraperitoneally injections were given with a 12 hour interval for 7 days. Animals were perfused on day 8. The rats were kept at 12 hours light/dark regime. In perfusion, animals were perfused transcranially with 50 ml of ice cold phosphate buffered saline (PBS) and then 100 ml of 4% paraformaldehyde in PBS. Brains were fixed after removal in 4% paraformaldehyde in PBS for 24 hours at 4° C. at least 3 days before sectioning. The procedures of transcranial infusion consist the following steps: […]

| Compound | number of contralateral rotations/hour [1] [rotations/hour] | number of newborn cells (BrdU positive) in sub ventricular zone and dentate gyrus [2] |
| --- | --- | --- |
| O=C1NCC(=O)N2CCC[C@H]2C(=O)NCC(=O)N2CCC[C@H]2C(=O)NCC(=O)N2CCCC12 (stereo partly drawn) [c(PG)3, cyclic (glycyl-L-prolylglycyl-L-prolylglycyl-L-prolyl)] (HELM PEPTIDE1{G.P.G.P.G.[O=C(C1CCCN1[*:1])[*:2]]}$PEPTIDE1,PEPTIDE1,1:R1-6:R2$$$V2.0) | 172±69 | significant increase |
| O=C1NCC(=O)N2CCC[C@@H]12 [cPG, cyclic Prolyl Glycine] | 154±64 | significant increase |
